# Reference: US20040166079A1, “N-Lauroyl amino acid composition for slimming the human body” (priority 2003, published 2004)
# Tests used:
# [1] = biological target: T1, human recombinant MMP-2 (Homo sapiens, UniProt P08253); assay: Measurement of the activity of metalloproteinase MMP-2 (DQ-gelatin fluorescence); format: biochemical; conditions: incubation concentration 0.0018 % DE; relative to the control
# T1 construct: purchased CALBIOCHEM PF023
# T1 sequence (P08253 110-660): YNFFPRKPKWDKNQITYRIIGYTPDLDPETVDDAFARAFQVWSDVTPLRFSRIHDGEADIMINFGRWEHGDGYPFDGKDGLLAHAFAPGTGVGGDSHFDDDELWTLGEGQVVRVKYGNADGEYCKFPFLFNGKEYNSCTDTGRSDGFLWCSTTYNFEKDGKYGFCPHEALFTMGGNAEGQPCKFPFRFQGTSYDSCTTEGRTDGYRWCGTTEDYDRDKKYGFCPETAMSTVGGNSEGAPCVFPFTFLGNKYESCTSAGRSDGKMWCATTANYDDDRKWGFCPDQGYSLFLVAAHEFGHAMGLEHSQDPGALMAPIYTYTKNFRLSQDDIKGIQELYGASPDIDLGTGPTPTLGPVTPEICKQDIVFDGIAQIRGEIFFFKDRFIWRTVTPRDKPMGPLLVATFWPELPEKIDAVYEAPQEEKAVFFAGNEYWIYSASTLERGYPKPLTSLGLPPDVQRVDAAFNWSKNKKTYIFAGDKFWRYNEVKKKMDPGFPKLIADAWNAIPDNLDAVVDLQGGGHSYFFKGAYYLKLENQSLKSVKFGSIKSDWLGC
# Description: (§1) The objective of this test is to evaluate the inhibitory capacity of a product on the enzymatic activity of MMP-2 and MMP-9. This test is based on an enzymatic reaction between purified MMP-2 or MMP-9 and a specific substrate containing a chromophore. The degradation of the chromogenic substrate by the enzyme leads to the production of fluorescence monitored by fluorimetry.
# (ii)—A human recombinant MMP-2 (CALBIOCHEM, PF023) is incubated, at 0.1 μg/ml, in the presence of the product and the chromogenic substrate, DQ-gelatin conjugated with fluorescein (MOLECULAR PROBE, D12054) at 10 μg/ml. The reaction mixture is incubated overnight at room temperature, protected from light. The quantity of DQ-gelatin degraded is measured by fluorescence (Ex: 355 nm; Em: 460 nm).
# (§2) The reactivity of the enzymatic system is systematically monitored for the measurement of the effect of a metalloproteinase inhibitor, 1,10-phenanthroline. The results are presented in the following table, as a percentage inhibition of the enzymatic activity of MMP-2 and MMP-9 relative to the control.
# [2] = biological target: T2, human recombinant MMP-9 (Homo sapiens, UniProt P14780); assay: Measurement of the activity of metalloproteinase MMP-9 (DQ-gelatin fluorescence); format: biochemical; conditions: incubation concentration 0.0018 % DE; relative to the control
# T2 construct: purchased CALBIOCHEM PF024
# Description: as §1
# (i)—A human recombinant MMP-9 (CALBIOCHEM, PF024) is incubated, at 0.05 μg/ml, in the presence of the product and the chromogenic substrate, DQ-gelatin conjugated with fluorescein (MOLECULAR PROBE, D12054) at 10 μg/ml. The reaction mixture is incubated overnight at room temperature, protected from light. The quantity of DQ-gelatin degraded is measured by fluorescence (Ex: 355 nm; Em: 460 nm).
# as §2
# [3] = biological target: T3, α2-adrenergic receptors (Homo sapiens, UniProt P08913); assay: Involvement of α2-adrenergic receptors in lipolytic activity: fatty acid assay in human adipocytes with brimonidine; format: cell-based
# T3 construct: adrenergic receptors found at the surface of the adipocytes; endogenous in cells; host or cells: human adipocytes from subcutaneous abdominal adipose tissue of women
# T3 sequence (P08913 1-465): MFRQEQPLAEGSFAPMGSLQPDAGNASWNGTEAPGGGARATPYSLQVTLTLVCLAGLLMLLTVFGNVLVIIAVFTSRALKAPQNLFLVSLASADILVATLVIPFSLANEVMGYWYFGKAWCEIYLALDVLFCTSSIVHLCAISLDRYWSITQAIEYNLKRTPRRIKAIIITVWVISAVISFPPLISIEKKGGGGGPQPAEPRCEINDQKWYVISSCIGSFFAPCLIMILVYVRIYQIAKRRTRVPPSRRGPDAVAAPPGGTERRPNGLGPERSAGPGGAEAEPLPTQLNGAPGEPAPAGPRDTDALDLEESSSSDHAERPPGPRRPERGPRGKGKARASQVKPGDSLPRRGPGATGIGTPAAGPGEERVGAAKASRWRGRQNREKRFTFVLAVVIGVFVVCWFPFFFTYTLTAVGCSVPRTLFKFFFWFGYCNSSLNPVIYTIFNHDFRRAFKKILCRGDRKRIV
# Source text: It involves determining, in an “in vitro” model of isolated human adipocytes, the involvement of the α2- and/or β-adrenergic receptors on the lipolytic activity of the test product. Lipolysis is indeed under the control of the adrenergic receptors found at the surface of the adipocytes. Two types of receptors coexist:
# A lipolytic product can call into play these receptors either by stimulating the β-adrenergic receptors (agonist), or by inhibiting the α2-adrenergic receptors (antagonist). The method described consists in incubating the product in the presence of human adipocytes in suspension, followed by the measurement of the lipolytic activity by assaying fatty acids. The adipocytes are incubated in the presence of pharmacological agents, α2-adrenergic agonists or β-adrenergic antagonists, known to inhibit lipolysis. The trial consists in studying the effect of the product on the inhibition of lipolysis induced by these pharmacological agents.
# The test is carried out using human adipocytes isolated and prepared as a cellular suspension. The adipocytes are isolated from the subcutaneous abdominal adipose tissue recovered during plastic surgery operations (abdominal plastic surgery operations) performed on women. The cells are isolated from fresh tissue. To isolate the cells, the adipose tissue is isolated and dissociated by the action of a collagenase (SIGMA™, 1 mg/ml, 30 minutes at 37° C., gentle stirring). Collagenase digests the connective tissue present in the adipose tissue. […]
# The product is incubated with the cells in suspension for two hours at 37° C. (250 μl of product+250 μl of adipocyte suspension). in the presence of an α2-adrenergic agonist: brimonidine at 10^−9 M (concentration previously determined to inhibit basal lipolysis by about 50%), and The supernatant media are collected. […]
# [4] = biological target: T4, hyaluronidase (SIGMA), purified from bovine testicles (Bos taurus, UniProt Q2YDK3); assay: Measurement of the activity of hyaluronidase (purified enzyme); format: biochemical; conditions: hyaluronidase test, 60 minutes at 37° C.
# T4 construct: purified from bovine testicles; purchased SIGMA; host or cells: bovine testicles
# T4 sequence (Q2YDK3 36-553): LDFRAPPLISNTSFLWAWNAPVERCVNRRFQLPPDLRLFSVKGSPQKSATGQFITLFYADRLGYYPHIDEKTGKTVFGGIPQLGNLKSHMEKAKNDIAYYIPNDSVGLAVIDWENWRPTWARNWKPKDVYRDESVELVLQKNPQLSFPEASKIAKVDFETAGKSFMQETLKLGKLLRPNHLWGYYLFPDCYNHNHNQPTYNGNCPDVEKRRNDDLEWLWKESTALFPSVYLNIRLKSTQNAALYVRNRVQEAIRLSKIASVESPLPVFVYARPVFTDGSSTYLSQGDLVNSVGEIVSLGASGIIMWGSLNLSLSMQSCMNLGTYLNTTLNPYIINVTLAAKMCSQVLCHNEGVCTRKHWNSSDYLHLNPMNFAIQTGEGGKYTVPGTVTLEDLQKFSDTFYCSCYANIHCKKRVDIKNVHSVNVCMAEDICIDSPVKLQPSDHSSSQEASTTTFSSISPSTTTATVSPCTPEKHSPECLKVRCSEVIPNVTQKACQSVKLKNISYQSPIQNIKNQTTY
# Description: The objective of this test is to measure the activity of hyaluronidase. This enzyme, which is naturally found in the skin, degrades hyaluronic acid. The study is carried out in vitro on the purified enzyme.
# The hyaluronidase (SIGMA), purified from bovine testicles, is incubated at 0.01 U/ml in the presence of hyaluronic acid at 0.02 mg/ml, with or without test product. The incubation is carried out for 60 minutes at 37° C.
# Evaluation of the effects: After the incubation, the hyaluronic acid not degraded by the enzyme is precipitated by a 24 mM sodium acetate/79. mM acetic acid mixture (10 minutes, room temperature). The precipitate is measured by spectrophotometry at 590 nm.
# The effect of the test products is compared to that observed in the presence of dipotassium glycyrrhizinate, a reference hyaluronidase inhibitor.
# [5] = test system: β-adrenergic receptors; assay: Involvement of β-adrenergic receptors in lipolytic activity: fatty acid assay in human adipocytes with propranolol; format: cell-based
# Description: The supernatant media are collected. The nonesterified fatty acids are assayed by spectrophotometry with the aid of a commercial kit in these supernatant media (NEFA C kit, WAKO). The assay is performed against a fatty acid calibration series.
# for the inhibition induced by the β-adrenergic antagonist, by the use of a β-adrenergic agonist, isoprenaline.
# [6] = test system: human adipocytes; assay: Assay of the free fatty acids (lipolytic activity) in isolated human adipocytes in suspension; format: cell-based; conditions: for Free fatty acid concentration: 2 h at 37° C., mean of five assays
# Source text: Hydrolysis of the triglycerides to nonesterified fatty acids and glycerol is called lipolysis. Triglycerides are stored in the adipocytes and constitute the fat reserve. For this reserve to diminish, which is the desired aim when slimming products are used, the triglycerides should be hydrolysed in the form of fatty acids, which in their case can be removed from the cell. Hydrolysis of the triglycerides calls into play a hormone-dependent lipase which must be phosphorylated in order to be active. The phosphorylation step uses a kinase and cAMP. An increase in the cAMP content of the adipocytes is necessary for promoting the activity of the lipase and therefore the lipolysis. The method described consists in incubating the products in the presence of human adipocytes in suspension, followed by […].
# The test is carried out using human adipocytes isolated and prepared as a cellular suspension. The adipocytes are isolated from the subcutaneous abdominal adipose tissue recovered during plastic surgery operations (abdominal plastic surgery operations) performed on women. The cells are isolated from fresh tissue. The adipose tissue is isolated and dissociated by the action of a collagenase (SIGMA™, 1 mg/ml, 30 minutes at 37° C., gentle stirring). Collagenase digests the connective tissue present in the adipose tissue. After digestion, the cells are filtered and washed in an appropriate culture medium containing MEM medium free of phenol red, free of glutamine (SIGMA)+2.2 mg/ml of sodium bicarbonate (GIBCO)+50 IU of penicillin (BIOWHITTAKER™)+50 μg/ml of streptomycin (BIOWHITTAKER™)+1% (v/v) of L-glutamine (BIOWHITTAKER™)+0.5% of lipid-free serum albumin (SIGMA™). The adipocyte suspension is used immediately after its preparation.
# The test products are diluted in the adipocyte culture medium. They are incubated with the cells in suspension for two hours at 37° C. (250 μl of product+250 μl of adipocyte suspension).
# After the incubation, the cell lysis is checked visually by the presence of a lipid layer at the surface of the cellular suspension. The supernatant media are collected. The free fatty acids are assayed by spectrophotometry using a commercial kit (NEFA™ C kit, WAKO), with reference to a fatty acid calibration series. The lypolytic activity of the products is evaluated relative to a control group incubated in the presence of adipocytes and in the absence of product. […] Five assays are performed for each of the test products which are as follows:
# This assay is repeated by carrying out new assays at different concentrations.
# [7] = incubation concentration 0.0001 wt % DE
# [8] = incubation concentration 0.0010 wt % DE
# T2 sequence (P14780 107-707 limits assumed): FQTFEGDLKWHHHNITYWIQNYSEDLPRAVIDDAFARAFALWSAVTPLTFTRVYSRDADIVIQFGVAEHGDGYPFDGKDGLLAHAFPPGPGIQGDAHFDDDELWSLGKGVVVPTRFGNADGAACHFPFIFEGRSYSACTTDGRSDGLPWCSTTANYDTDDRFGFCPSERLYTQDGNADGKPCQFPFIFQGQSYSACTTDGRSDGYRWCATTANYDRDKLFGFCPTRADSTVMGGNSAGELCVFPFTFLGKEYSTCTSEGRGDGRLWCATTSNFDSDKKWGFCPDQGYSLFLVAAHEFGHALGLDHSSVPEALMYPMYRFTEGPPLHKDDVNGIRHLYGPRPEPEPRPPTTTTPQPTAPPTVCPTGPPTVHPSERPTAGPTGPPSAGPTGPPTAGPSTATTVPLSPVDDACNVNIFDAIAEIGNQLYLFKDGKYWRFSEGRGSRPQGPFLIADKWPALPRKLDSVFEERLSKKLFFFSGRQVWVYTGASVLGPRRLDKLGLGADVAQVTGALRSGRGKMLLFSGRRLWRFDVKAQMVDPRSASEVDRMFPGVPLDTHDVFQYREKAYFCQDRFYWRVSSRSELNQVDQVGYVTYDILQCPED
smiles,measurement,setting,value
"c1cnc2c(c1)ccc1cccnc12 [1,10-Phenanthroline, 1,10-phenanthroline]",MMP-2 inhibiting effect,[1],25%
same,MMP-9 inhibiting effect,[2],75%
"Brc1c(NC2=NCCN2)ccc2nccnc12 [Brimonidine, brimonidine]",Assay of the nonesterified fatty acids in the supernatant (% relative to the control),"[3]; 10^−9 M, alone",0%
same,inhibition at 0.001 µM,[3]; read-out: inhibition of basal lipolysis,~50%
"CC1(C)[C@@H](O[C@H]2O[C@H](C(=O)[O-])[C@@H](O)[C@H](O)[C@H]2O[C@@H]2O[C@H](C(=O)[O-])[C@@H](O)[C@H](O)[C@H]2O)CC[C@]2(C)[C@H]3C(=O)C=C4[C@@H]5C[C@@](C)(C(=O)O)CC[C@]5(C)CC[C@@]4(C)[C@]3(C)CC[C@@H]12.[K+].[K+] [Di K glycyrrhizinate, dipotassium glycyrrhizinate]",Percentage inhibition of hyaluronidase activity,[4]; incubation concentration 0.001 % DE,20%
same,Percentage inhibition of hyaluronidase activity,[4]; incubation concentration 0.1 % DE,45%
"CC(C)NCC(O)c1ccc(O)c(O)c1 (centres unmarked) [Isoprenaline, isoprenaline]",Assay of the nonesterified fatty acids in the supernatant (% relative to the control),[5]; 10^−5 M + propanolol 10^−7 M,170%
CCCCCCCCCCCC(=O)N(C)CC(=O)O [N-Lauroylsarcosine],Free fatty acid concentration,[6]; [7],26.32 ± 0.68 µM
same,Lipolytic activity (compared with the control = 100),[6]; [7],228
same,Free fatty acid concentration,[6]; [8],28.82 ± 6.11 µM
same,Lipolytic activity (compared with the control = 100),[6]; [8],250
"Cc1ccc(N(CC2=NCCN2)c2cccc(O)c2)cc1 [Phentolamine, phentolamine]",Assay of the nonesterified fatty acids in the supernatant (% relative to the control),[3]; 10^−7 M + brimonidine 10^−9 M,79%
"CC(C)NCC(O)COc1cccc2ccccc12 (centres unmarked) [Propanolol, propranolol]",Assay of the nonesterified fatty acids in the supernatant (% relative to the control),"[5]; 10^−7 M, alone",86%
same,inhibition of basal lipolysis,"[5]; at 10^−7 M, concentration previously determined",about 50%
